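48-hour exposure; five concentrations; linearly interpolated endpoints. At the GI50, growth is halved. TGI marks complete inhibition of growth.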
How the values were obtained:
Test in all cases: NCI-60 cell line screen, 48 h; in the data active = GI50 below about 0.43 µM; inactive = the rest
COLO 205 colon = tested on: COLO 205 colon
NCI-H460 lung = tested on: NCI-H460 lung
HT29 colon = tested on: HT29 colon
IGROV1 ovarian = tested on: IGROV1 ovarian
LOX IMVI melanoma = tested on: LOX IMVI melanoma
MALME-3M melanoma = tested on: MALME-3M melanoma
HL-60(TB) leukemia = tested on: HL-60(TB) leukemia
NCI-H23 lung = tested on: NCI-H23 lung
A498 renal = tested on: A498 renal
OVCAR-3 ovarian = tested on: OVCAR-3 ovarian
SK-MEL-28 melanoma = tested on: SK-MEL-28 melanoma
MOLT-4 leukemia = tested on: MOLT-4 leukemia
HCT-15 colon = tested on: HCT-15 colon
PC-3 prostate = tested on: PC-3 prostate
HOP-62 NSCLC = tested on: HOP-62 NSCLC
TK-10 renal = tested on: TK-10 renal
MDA-MB-435 = tested on: MDA-MB-435
SF-295 CNS = tested on: SF-295 CNS
MCF7 breast = tested on: MCF7 breast
EKVX NSCLC = tested on: EKVX NSCLC
BT-549 breast = tested on: BT-549 breast
K-562 leukemia = tested on: K-562 leukemia
HCC-2998 colon = tested on: HCC-2998 colon
786-0 renal = tested on: 786-0 renal
UACC-62 melanoma = tested on: UACC-62 melanoma
HCT-116 colon = tested on: HCT-116 colon
SNB-75 CNS = tested on: SNB-75 CNS
SNB-19 CNS = tested on: SNB-19 CNS
M14 melanoma = tested on: M14 melanoma
T-47D breast = tested on: T-47D breast
RPMI-8226 leukemia = tested on: RPMI-8226 leukemia
ACHN renal = tested on: ACHN renal
SK-MEL-2 melanoma = tested on: SK-MEL-2 melanoma
SF-539 CNS = tested on: SF-539 CNS
OVCAR-8 ovarian = tested on: OVCAR-8 ovarian
NCI-H522 lung = tested on: NCI-H522 lung
MDA-MB-468 breast = tested on: MDA-MB-468 breast
U251 CNS = tested on: U251 CNS
UACC-257 melanoma = tested on: UACC-257 melanoma
HOP-92 NSCLC = tested on: HOP-92 NSCLC
SK-MEL-5 melanoma = tested on: SK-MEL-5 melanoma
SK-OV-3 ovarian = tested on: SK-OV-3 ovarian
RXF 393 renal = tested on: RXF 393 renal
A549 NSCLC = tested on: A549 NSCLC
HS 578T breast = tested on: HS 578T breast
SW-620 colon = tested on: SW-620 colon
KM12 colon = tested on: KM12 colon
NCI/ADR-RES ovarian = tested on: NCI/ADR-RES ovarian
DU-145 prostate = tested on: DU-145 prostate
SN12C renal = tested on: SN12C renal
OVCAR-4 ovarian = tested on: OVCAR-4 ovarian
CAKI-1 renal = tested on: CAKI-1 renal
NCI-H226 lung = tested on: NCI-H226 lung
OVCAR-5 ovarian = tested on: OVCAR-5 ovarian
SF-268 CNS = tested on: SF-268 CNS

O=C(N/N=C/c1ccc(-c2cccc([N+](=O)[O-])c2)o1)c1[nH]c2ccc(Br)cc2c1-c1ccccc1
inactive: GI50 (COLO 205 colon) 2.75 µM | GI50 (NCI-H460 lung) 3.49 µM | GI50 (HT29 colon) 2.58 µM | GI50 (IGROV1 ovarian) 4.33 µM | GI50 (LOX IMVI melanoma) 3.71 µM | GI50 (MALME-3M melanoma) 3.77 µM | GI50 (HL-60(TB) leukemia) 1.94 µM | GI50 (NCI-H23 lung) 4.87 µM | GI50 (A498 renal) > 100 µM | GI50 (OVCAR-3 ovarian) 3.47 µM | GI50 (SK-MEL-28 melanoma) 6.75 µM | GI50 (MOLT-4 leukemia) 3.45 µM | GI50 (HCT-15 colon) 3.59 µM | GI50 (PC-3 prostate) 4.28 µM | GI50 (HOP-62 NSCLC) 3.49 µM | GI50 (TK-10 renal) > 100 µM | GI50 (MDA-MB-435) 3.2 µM | GI50 (SF-295 CNS) 3.17 µM | GI50 (MCF7 breast) 3.56 µM | GI50 (EKVX NSCLC) 5.74 µM | GI50 (BT-549 breast) 2.16 µM | GI50 (K-562 leukemia) 3.28 µM | GI50 (HCC-2998 colon) 4.63 µM | GI50 (786-0 renal) 2.75 µM | GI50 (UACC-62 melanoma) 4.46 µM | GI50 (HCT-116 colon) 3.04 µM | GI50 (SNB-75 CNS) 4.56 µM | GI50 (SNB-19 CNS) 3.48 µM | GI50 (M14 melanoma) 3.43 µM | GI50 (T-47D breast) > 100 µM | GI50 (RPMI-8226 leukemia) 3.31 µM | GI50 (ACHN renal) 4.76 µM | GI50 (SK-MEL-2 melanoma) 2.68 µM | GI50 (SF-539 CNS) 2.34 µM | GI50 (OVCAR-8 ovarian) 2.44 µM | GI50 (NCI-H522 lung) 1.73 µM | GI50 (MDA-MB-468 breast) 2.28 µM | GI50 (U251 CNS) 3.34 µM | GI50 (UACC-257 melanoma) 5.79 µM | GI50 (HOP-92 NSCLC) 46.1 µM | GI50 (SK-MEL-5 melanoma) 2.22 µM | GI50 (SK-OV-3 ovarian) 3.61 µM | GI50 (RXF 393 renal) 2.65 µM | GI50 (A549 NSCLC) 3.66 µM | GI50 (HS 578T breast) 4.26 µM | GI50 (SW-620 colon) 4.5 µM | GI50 (KM12 colon) 3.75 µM | GI50 (NCI/ADR-RES ovarian) 2.53 µM | GI50 (DU-145 prostate) 4.2 µM | GI50 (SN12C renal) 3.99 µM | GI50 (OVCAR-4 ovarian) > 100 µM | GI50 (CAKI-1 renal) 30.9 µM | GI50 (NCI-H226 lung) 23.5 µM | GI50 (OVCAR-5 ovarian) 3.84 µM | GI50 (SF-268 CNS) 5.55 µM
7.49 µM: TGI (COLO 205 colon)
6.49 µM: TGI (NCI/ADR-RES ovarian)
5.34 µM: TGI (SK-MEL-5 melanoma)
6.28 µM: TGI (BT-549 breast)
6.97 µM: TGI (HT29 colon)
3.98 µM: TGI (NCI-H522 lung)
13.3 µM: TGI (786-0 renal)
8.93 µM: TGI (SK-MEL-2 melanoma)
7.45 µM: TGI (RXF 393 renal)
6 µM: TGI (MDA-MB-468 breast)
10.4 µM: TGI (HCT-116 colon)
5.81 µM: TGI (SF-539 CNS)
> 100 µM: TGI (NCI-H460 lung) | TGI (IGROV1 ovarian) | TGI (LOX IMVI melanoma) | TGI (MALME-3M melanoma) | TGI (NCI-H23 lung) | TGI (A498 renal) | TGI (OVCAR-3 ovarian) | TGI (SK-MEL-28 melanoma) | TGI (MOLT-4 leukemia) | TGI (HCT-15 colon) | TGI (PC-3 prostate) | TGI (HOP-62 NSCLC) | TGI (TK-10 renal) | TGI (MDA-MB-435) | TGI (SF-295 CNS) | TGI (MCF7 breast) | TGI (EKVX NSCLC) | TGI (K-562 leukemia) | TGI (HCC-2998 colon) | TGI (UACC-62 melanoma) | TGI (SNB-75 CNS) | TGI (SNB-19 CNS) | TGI (M14 melanoma) | TGI (T-47D breast) | TGI (RPMI-8226 leukemia) | TGI (ACHN renal) | TGI (U251 CNS) | TGI (UACC-257 melanoma) | TGI (HOP-92 NSCLC) | TGI (SK-OV-3 ovarian) | TGI (A549 NSCLC) | TGI (HS 578T breast) | TGI (SW-620 colon) | TGI (KM12 colon) | TGI (DU-145 prostate) | TGI (SN12C renal) | TGI (OVCAR-4 ovarian) | TGI (CAKI-1 renal) | TGI (NCI-H226 lung) | TGI (OVCAR-5 ovarian) | TGI (SF-268 CNS)
5.5 µM: TGI (OVCAR-8 ovarian)
5.32 µM: TGI (HL-60(TB) leukemia)
